In US7977388B2, “Quinone derivative 2,3-dimethoxy-5-methyl-6-(10-hydroxydecyl)-1,4-benzoquinone for the treatment of muscular dystrophies” (Santhera Pharmaceuticals (Schweiz) AG, priority 2005, dated 2011):

System: dystrophin-deficient mdx mouse
Assay: Voluntary daily running performance of idebenone-treated mdx mice
Type: in vivo
Procedure: The effect of idebenone on the running performance was tested in the dystrophin-deficient mdx mouse, a validated animal model for DMD. Starting at day 21 of age, mdx mice were treated with idebenone. Their daily running performance was compared to mdx mice treated with vehicle only and to non-treated wild-type mice. For this, idebenone was dissolved in 0.5% w/v carboxymethylcellulose (CMC) to a final concentration of 20 mg/ml. Idebenone (20 mg/ml in 0.5% CMC) was applied once a day by gavage feeding. The final dose of idebenone at all time points was 200 mg/kg body weight. Control mice received the same amount of vehicle only. […] Idebenone treated mdx mice performed clearly better compared to the vehicle-treated mdx mice from the start of the analysis.

What does the source list for `COC1=C(OC)C(=O)C(CCCCCCCCCCO)=C(C)C1=O` [idebenone, 2,3-dimethoxy-5-methyl-6-(10-hydroxydecyl)-1,4-benzoquinone]?
Total daily running distance (mdx mice treated daily with idebenone vs vehicle-treated mdx and wild-type mice, distance in meters): clearly increased; Daily running performance (mdx mice, 200 mg/kg body weight once a day by gavage in 0.5% CMC from day 21 of age, analysed 29-84 days of age, vs vehicle-treated mdx mice): prominent increase
